From ChEMBL document CHEMBL1137827, “Spiroquinazolinones as novel, potent, and selective PDE7 inhibitors. Part 1” (Bioorg Med Chem Lett, 2004)

Columns and labels:
[1] = target: T1, High affinity 3',5'-cyclic-AMP phosphodiesterase 7A (Homo sapiens, UniProt Q13946); assay: Inhibition of human Phosphodiesterase 7A1 expressed in baculovirus infected Sf9 cells
[2] = target: T2, cGMP-specific 3',5'-cyclic phosphodiesterase (Homo sapiens, UniProt O76074); assay: In vitro inhibition of human Phosphodiesterase 5
Phosphodiesterase 1 [3] = target: T3, Phosphodiesterase 1 (Homo sapiens, UniProt P54750+Q01064+Q14123); assay: In vitro inhibition of human Phosphodiesterase 1 partially purified from THP-1 cells
[4] = target: T4, cGMP-inhibited 3',5'-cyclic phosphodiesterase 3A (Homo sapiens, UniProt Q14432); assay: In vitro inhibition of human Phosphodiesterase 3A3 expressed in baculovirus infected Sf9 cells
T4 sequence (Q14432 whole entry): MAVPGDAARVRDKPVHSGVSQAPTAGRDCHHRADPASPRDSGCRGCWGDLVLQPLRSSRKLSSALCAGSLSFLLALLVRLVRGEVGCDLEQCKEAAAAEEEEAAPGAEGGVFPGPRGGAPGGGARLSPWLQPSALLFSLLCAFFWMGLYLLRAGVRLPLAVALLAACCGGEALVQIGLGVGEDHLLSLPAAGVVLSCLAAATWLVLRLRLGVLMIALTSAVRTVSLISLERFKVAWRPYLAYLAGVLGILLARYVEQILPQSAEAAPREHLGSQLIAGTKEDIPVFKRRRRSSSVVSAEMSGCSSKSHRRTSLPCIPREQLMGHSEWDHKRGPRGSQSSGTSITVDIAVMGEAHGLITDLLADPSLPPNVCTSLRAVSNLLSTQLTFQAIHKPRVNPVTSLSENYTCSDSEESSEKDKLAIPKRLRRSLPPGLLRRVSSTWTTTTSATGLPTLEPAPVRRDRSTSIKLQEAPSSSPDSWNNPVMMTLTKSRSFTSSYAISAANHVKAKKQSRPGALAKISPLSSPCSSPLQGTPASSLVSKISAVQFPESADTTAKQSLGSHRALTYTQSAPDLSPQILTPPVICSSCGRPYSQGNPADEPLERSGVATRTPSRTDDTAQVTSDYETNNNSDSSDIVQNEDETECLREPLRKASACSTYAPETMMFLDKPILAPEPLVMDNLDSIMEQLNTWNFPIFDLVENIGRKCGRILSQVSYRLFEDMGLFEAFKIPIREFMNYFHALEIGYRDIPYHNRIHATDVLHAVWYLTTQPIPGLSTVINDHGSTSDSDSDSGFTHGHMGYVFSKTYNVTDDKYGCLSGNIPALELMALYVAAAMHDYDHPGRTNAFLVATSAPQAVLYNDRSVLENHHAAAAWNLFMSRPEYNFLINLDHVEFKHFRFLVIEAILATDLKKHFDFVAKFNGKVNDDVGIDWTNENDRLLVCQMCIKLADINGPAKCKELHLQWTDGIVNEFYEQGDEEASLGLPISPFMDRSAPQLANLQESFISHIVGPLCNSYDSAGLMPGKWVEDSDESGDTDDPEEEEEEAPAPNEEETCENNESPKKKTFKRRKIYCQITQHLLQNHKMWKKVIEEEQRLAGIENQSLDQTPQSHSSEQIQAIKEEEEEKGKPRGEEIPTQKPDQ

[5] = target: T5, 3',5'-cyclic-AMP phosphodiesterase 4D (Homo sapiens, UniProt Q08499); assay: In vitro inhibition of human Phosphodiesterase 4D3 expressed in baculovirus infected Sf9 cells
T5 sequence (Q08499 whole entry): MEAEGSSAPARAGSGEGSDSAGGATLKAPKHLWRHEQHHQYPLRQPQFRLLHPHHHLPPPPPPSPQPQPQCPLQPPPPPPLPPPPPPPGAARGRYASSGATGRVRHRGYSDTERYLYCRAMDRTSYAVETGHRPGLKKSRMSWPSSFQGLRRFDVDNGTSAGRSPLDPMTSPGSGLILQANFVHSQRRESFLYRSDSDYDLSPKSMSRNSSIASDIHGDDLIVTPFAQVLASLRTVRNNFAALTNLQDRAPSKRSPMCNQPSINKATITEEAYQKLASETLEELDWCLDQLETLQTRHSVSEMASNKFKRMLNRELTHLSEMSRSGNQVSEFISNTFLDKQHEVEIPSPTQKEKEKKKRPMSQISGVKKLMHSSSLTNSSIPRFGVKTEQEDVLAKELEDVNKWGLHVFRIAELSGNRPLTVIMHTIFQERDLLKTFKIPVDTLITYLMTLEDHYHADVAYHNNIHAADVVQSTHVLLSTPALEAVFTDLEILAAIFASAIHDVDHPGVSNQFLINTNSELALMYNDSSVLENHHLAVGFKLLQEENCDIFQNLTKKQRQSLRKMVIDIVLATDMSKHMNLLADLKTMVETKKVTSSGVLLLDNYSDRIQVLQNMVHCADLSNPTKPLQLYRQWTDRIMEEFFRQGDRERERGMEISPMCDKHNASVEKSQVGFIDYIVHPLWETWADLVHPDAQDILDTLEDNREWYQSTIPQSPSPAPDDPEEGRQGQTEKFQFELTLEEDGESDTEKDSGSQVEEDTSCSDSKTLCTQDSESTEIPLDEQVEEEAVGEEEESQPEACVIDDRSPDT

[6] = target: T1, High affinity 3',5'-cyclic-AMP phosphodiesterase 7A; assay: In vitro inhibition of human Phosphodiesterase 7A1 expressed in baculovirus infected Sf9 cells
[7] = target: T5, 3',5'-cyclic-AMP phosphodiesterase 4D; assay: Inhibition of human Phosphodiesterase 4D3 expressed in baculovirus infected Sf9 cells
[8] = target: T2, cGMP-specific 3',5'-cyclic phosphodiesterase; assay: Inhibition of human Phosphodiesterase 5
[9] = target: T4, cGMP-inhibited 3',5'-cyclic phosphodiesterase 3A; assay: Inhibition of human Phosphodiesterase 3A3 expressed in baculovirus infected Sf9 cells
Phosphodiesterase 1 [10] = target: T3, Phosphodiesterase 1; assay: Inhibition of human Phosphodiesterase 1 partially purified from THP-1 cells; type: cell-free

T1 sequence (Q13946 whole entry): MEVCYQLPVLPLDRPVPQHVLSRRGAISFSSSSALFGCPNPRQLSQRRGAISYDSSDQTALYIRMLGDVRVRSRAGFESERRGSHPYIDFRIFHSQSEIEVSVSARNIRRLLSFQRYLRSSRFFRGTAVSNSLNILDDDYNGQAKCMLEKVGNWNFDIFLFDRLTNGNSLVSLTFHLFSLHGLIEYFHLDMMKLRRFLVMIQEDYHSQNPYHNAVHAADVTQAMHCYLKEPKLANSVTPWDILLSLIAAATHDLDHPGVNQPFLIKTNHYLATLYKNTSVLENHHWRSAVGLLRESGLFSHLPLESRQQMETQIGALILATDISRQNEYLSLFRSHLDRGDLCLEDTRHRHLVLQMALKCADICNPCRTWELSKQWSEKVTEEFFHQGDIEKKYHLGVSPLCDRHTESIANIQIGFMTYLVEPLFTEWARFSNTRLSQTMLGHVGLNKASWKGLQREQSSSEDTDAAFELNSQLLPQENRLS

| Compound | IC50 [1] [µM] | IC50 [2] [µM] | IC50 (Phosphodiesterase 1 [3]) [µM] | IC50 [4] [µM] | IC50 [5] [µM] | IC50 [6] [µM] | other results |
| --- | --- | --- | --- | --- | --- | --- | --- |
| COc1ccc2c(c1)C1(CCCCC1)NC(=O)N2 | 3.2 | – | – | – | – | – | – |
| O=C1Nc2c(Br)cccc2C2(CCCCC2)N1 | 0.06 | – | – | – | – | – | – |
| O=C1Nc2ccc(-c3ccccc3)cc2C2(CCCCC2)N1 | 0.98 | – | – | – | – | – | – |
| CN1CCN(C(=O)c2cccc(-c3cc(Cl)c4c(c3)C3(CCCCC3)NC(=O)N4)c2)CC1 | 0.04 | 52.4 | 6.39 | 31.6 | 1.31 | – | – |
| O=C1Nc2c(Cl)cc(-c3cccnc3)cc2C2(CCCCC2)N1 | – | 19.3 | 2.86 | 14.8 | 1.55 | 0.05 | – |
| O=C1Nc2ccc(Cl)c(Cl)c2C2(CCCCC2)N1 | 0.6 | – | – | – | – | – | – |
| CN(C)CCCNC(=O)c1cccc(-c2cc(Cl)c3c(c2)C2(CCCCC2)NC(=O)N3)c1 | – | > 84.9 | 5.16 | 78.1 | 1.46 | 0.01 | – |
| O=C1Nc2c(F)cccc2C2(CCCCC2)N1 | 0.39 | – | – | – | – | – | – |
| CN1CCN(C(=O)c2ccccc2-c2cc(Cl)c3c(c2)C2(CCCCC2)NC(=O)N3)CC1 | – | > 101 | 20.1 | > 92 | 15.7 | 1.52 | – |
| CCCC1(CCC)NC(=O)Nc2c(Br)cccc21 | 2.66 | – | – | – | – | – | – |
| O=C1Nc2c(Cl)cc(-c3ccccn3)cc2C2(CCCCC2)N1 | – | 68.4 | 8.3 | 45.1 | 1.8 | 0.03 | – |
| CN(C)CCNC(=O)c1cccc(-c2cc(Cl)c3c(c2)C2(CCCCC2)NC(=O)N3)c1 | – | > 101 | 11.6 | > 79.9 | 1.59 | 0.02 | – |
| CN(C)CCNC(=O)c1ccc(-c2cc(Cl)c3c(c2)C2(CCCCC2)NC(=O)N3)cc1 | – | > 67.3 | 6.29 | 42.2 | 1.63 | 0.02 | – |
| O=C1Nc2cc(Cl)c(Cl)cc2C2(CCCCC2)N1 | 3.7 | – | – | – | – | – | – |
| NC(=O)c1ccc(-c2cc(Cl)c3c(c2)C2(CCCCC2)NC(=O)N3)cc1 | – | – | 1.28 | 0.28 | – | 0.02 | IC50 [7]: 0.69 µM; IC50 [8]: 11.6 µM |
| O=C1Nc2cccc(Cl)c2C2(CCCCC2)N1 | 0.84 | – | – | – | – | – | – |
| O=C1Nc2c(Br)cccc2C2(CCCCCC2)N1 | 0.06 | – | – | – | – | – | – |
| CN1CCN(C(=O)c2ccc(-c3cc(Cl)c4c(c3)C3(CCCCC3)NC(=O)N4)cc2)CC1 | – | – | 7.01 | 29.3 | 1.7 | 0.01 | IC50 [8]: 29.3 µM |

| Compound | IC50 [1] [µM] | IC50 [2] [µM] | IC50 (Phosphodiesterase 1 [3]) [µM] | IC50 [4] [µM] | IC50 [5] [µM] | IC50 [6] [µM] | other results |
| --- | --- | --- | --- | --- | --- | --- | --- |
| Cc1cccc2c1NC(=O)NC21CCCCC1 | 0.79 | – | – | – | – | – | – |
| CCC1(CC)NC(=O)Nc2c(Br)cccc21 | 6.54 | – | – | – | – | – | – |
| CN(C)CCCNC(=O)c1ccc(-c2cc(Cl)c3c(c2)C2(CCCCC2)NC(=O)N3)cc1 | – | > 50.7 | 6.47 | 44.5 | 1.5 | 0.02 | – |
| O=C1Nc2c(I)cccc2C2(CCCCC2)N1 | 6.85 | – | – | – | – | – | – |
| O=C1Nc2cc(Cl)ccc2C2(CCCCC2)N1 | 2.7 | – | – | – | – | – | – |
| COc1ccc2c(c1)NC(=O)NC21CCCCC1 | 9.5 | – | – | – | – | – | – |
| O=C1Nc2ccccc2C2(CCCCC2)N1 | 6.6 | – | – | – | – | – | – |
| Cc1cc(Cl)c2c(c1)C1(CCCCC1)NC(=O)N2 | 0.16 | – | – | – | – | – | – |
| O=C1Nc2ccc(Cl)cc2C2(CCCCC2)N1 | 4.8 | – | – | – | – | – | – |
| O=C1Nc2c(Cl)cc(-c3cccc(C(=O)O)c3)cc2C2(CCCCC2)N1 | – | 12.6 | 0.71 | 16.7 | 0.74 | 0.02 | – |
| O=C1Nc2c(Cl)cc(-c3ccc(C(=O)O)cc3)cc2C2(CCCCC2)N1 | – | 8.5 | 0.89 | 21.3 | 0.47 | 0.01 | – |
| O=C1Nc2c(Cl)cc(Cl)cc2C2(CCCCC2)N1 | 0.12 | – | – | – | – | – | – |
| O=C1Nc2c(Cl)cc(-c3ccccc3)cc2C2(CCCCC2)N1 | 0.01 | – | – | – | – | – | IC50 [9]: > 101 µM; IC50 [7]: 1.42 µM; IC50 (Phosphodiesterase 1 [10]): 3.26 µM; IC50 [8]: 69.8 µM |
| O=C1Nc2c(Br)cccc2C2(CCC2)N1 | 1.4 | – | – | – | – | – | – |
| O=C1Nc2c(Cl)cc(-c3ccncc3)cc2C2(CCCCC2)N1 | – | 9.47 | 3.01 | 11.2 | 1.01 | 0.03 | – |
| CC1CCC2(CC1)NC(=O)Nc1c(Br)cccc12 (configuration not stated) | 0.21 | – | – | – | – | – | – |
| O=C1Nc2c(C(F)(F)F)cccc2C2(CCCCC2)N1 | 2.96 | – | – | – | – | – | – |
| COc1cc(Cl)c2c(c1)C1(CCCCC1)NC(=O)N2 | 0.16 | – | – | – | – | – | – |
